This note sets out measurements from ChEMBL document CHEMBL1201862, “PubChem BioAssay data set” (2004).

The structures appear in SMILES notation.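 Method: 48-hour compound exposure of cells in 96-well plates, five concentrations, linear interpolation of endpoints. Abbreviation: GI50, concentration required for 50% inhibition of growth.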 The source made the active and inactive calls. Cut-off read from the data, not from the text of the source: active = GI50 up to about 1.1 µM and inactive = higher.

Some test systems named below: 786-0; DU-145; Hs-578T; IGROV-1; KM12; MDA-MB-231; MDA-MB-435; Malme-3M; NCI-H23; OVCAR-8; RPMI-8226; RXF 393; SF-268; SF-295; SF-539; SN12C; SNB-19; SNB-75; SW-620; TK-10.
Common to all, as to assay: DTP human tumour cell line panel, 48 h

The term GI50 denotes the concentration that inhibits growth by half.

Consider `Cc1cc2c(c(O)c1-c1c(C)cc(O)c3c1C(=O)C=CC3=O)C(=O)C=CC2=O`, for which the GI50 with 786-0 is 1.16 µM (inactive); in the test with DU-145, 2.19 µM (inactive); with Hs-578T, 3.07 µM (inactive); in the test on IGROV-1, 2.26 µM (inactive); in the test on KM12, 10.3 µM (inactive); in the test on MDA-MB-231 it was 2 µM (inactive). Moreover, the GI50 was 1.95 µM (inactive) in the test on MDA-MB-435; 0.342 µM (active) in the test with Malme-3M; 3.05 µM (inactive) in the test with NCI-H23; 1.95 µM (inactive) in the test with OVCAR-8; 0.226 µM (active) with RPMI-8226; 0.757 µM (active) with RXF 393. In addition, the GI50 with SF-268 is 1.92 µM (inactive); in the test with SF-295, 16.7 µM (inactive); with SF-539, 2.88 µM (inactive); in the test on SN12C, 2.37 µM (inactive); in the test with SNB-19, 18 µM (inactive); in the test with SNB-75, 5.5 µM (inactive). In addition, the figures for the GI50 in the test with SW-620 and in the test on TK-10 were 1.59 µM (inactive) and 0.855 µM (active), respectively.

`[O-]c1c[n+](CCCC[n+]2cc([O-])on2)no1`: the GI50 in the test on 786-0, in the test on DU-145, in the test with Hs-578T, in the test on IGROV-1, with KM12 and in the test on MDA-MB-231 was > 100 µM (inactive) in each case. Also, the GI50 in the test on MDA-MB-435, with Malme-3M, in the test on NCI-H23, in the test on OVCAR-8, in the test on RPMI-8226 and with RXF 393 was > 100 µM (inactive) throughout. Also, the GI50 with SF-268, in the test on SF-295, with SF-539, in the test with SN12C, in the test with SNB-19 and in the test on SNB-75 was > 100 µM (inactive) in each case. For the same compound, the GI50 in the test with SW-620 and in the test with TK-10 was > 100 µM (inactive) throughout.

As to `Cn1/c(=N\S(=O)(=O)c2ccccc2)[nH]c2ccccc21`, the GI50 in the test with 786-0, in the test with DU-145, in the test with Hs-578T, with IGROV-1, in the test on KM12 and in the test with MDA-MB-231 was > 100 µM (inactive) in each case. Further, the GI50 in the test on MDA-MB-435, in the test on Malme-3M, in the test on NCI-H23, in the test on OVCAR-8, in the test with RPMI-8226 and in the test with RXF 393 was > 100 µM (inactive) throughout. Also, the GI50 with SF-268 was 58.6 µM (inactive); in the test with SF-295, > 100 µM (inactive); in the test with SF-539, > 100 µM (inactive); in the test on SN12C, > 100 µM (inactive); in the test on SNB-19 it was > 100 µM (inactive); in the test with SNB-75 it was > 100 µM (inactive). For the same compound, the GI50 in the test with SW-620 and in the test on TK-10 was > 100 µM (inactive) throughout.

For the compound `Cc1ccc(S[C@@H](C)[C@@](O)(C(N)=O)c2ccccc2)cc1`, the GI50 with 786-0 was 72.6 µM (inactive); in the test with DU-145 it was 72.9 µM (inactive); in the test on Hs-578T, > 100 µM (inactive); in the test on IGROV-1, 3.74 µM (inactive); with KM12 it was 40.8 µM (inactive); with MDA-MB-231, 19.2 µM (inactive). The GI50 with MDA-MB-435 is 45.6 µM (inactive); in the test with Malme-3M, 21 µM (inactive); with NCI-H23, 29.8 µM (inactive); in the test on OVCAR-8, 38.5 µM (inactive); in the test with RPMI-8226, 21.7 µM (inactive); in the test on RXF 393, 86.1 µM (inactive). In addition, the GI50 is > 100 µM (inactive) in the test with SF-268; 18.5 µM (inactive) with SF-295; 25.6 µM (inactive) in the test on SF-539; > 100 µM (inactive) in the test on SN12C; > 100 µM (inactive) in the test on SNB-19; > 100 µM (inactive) in the test with SNB-75. Moreover, the figures for the GI50 in the test on SW-620 and in the test with TK-10 were 39 µM (inactive) and > 100 µM (inactive), respectively.

Take `CC(=O)c1c(SCCN2CCOCC2)n(-c2ccccc2)c(=S)n(-c2ccccc2)c1=O`: the GI50 was 11.5 µM (inactive) in the test on 786-0; 8.99 µM (inactive) with DU-145; 39.7 µM (inactive) in the test on Hs-578T; 16.9 µM (inactive) with IGROV-1; > 39.7 µM (inactive) with KM12; 19.1 µM (inactive) in the test on MDA-MB-231. In addition, the GI50 with MDA-MB-435 is 16 µM (inactive); in the test with Malme-3M, 28.2 µM (inactive); in the test on NCI-H23, 27.6 µM (inactive); with OVCAR-8 it was 19.3 µM (inactive); in the test on RPMI-8226, 8.38 µM (inactive); in the test with RXF 393 it was 11.9 µM (inactive). Moreover, the GI50 in the test on SF-268 was 20.2 µM (inactive); with SF-295 it was > 62.7 µM (inactive); in the test on SF-539 it was 21.6 µM (inactive); in the test with SN12C, 16.9 µM (inactive); in the test with SNB-19, > 40.9 µM (inactive); with SNB-75, 22.3 µM (inactive). The values for the GI50 in the test with SW-620 and in the test with TK-10 were 20.7 µM (inactive) and 17.2 µM (inactive), respectively.

For the compound `OCCCNCc1ccccn1`, the GI50 in the test with 786-0, with DU-145, in the test on Hs-578T, in the test on IGROV-1, with KM12 and with MDA-MB-231 was > 100 µM (inactive) in each case. For the same compound, the GI50 in the test with MDA-MB-435, with Malme-3M, with NCI-H23, with OVCAR-8, in the test on RPMI-8226 and in the test with RXF 393 was > 100 µM (inactive) each time. Besides, the GI50 with SF-268, in the test on SF-295, in the test with SF-539, in the test on SN12C, in the test with SNB-19 and with SNB-75 was > 100 µM (inactive) throughout. For the same compound, the GI50 with SW-620 and in the test with TK-10 was > 100 µM (inactive) in each case.

As for `N#CC[N+]1(Cc2ccccn2)CCCC1.O=S(=O)([O-])c1ccccc1`, the GI50 with 786-0, in the test on DU-145, in the test on Hs-578T, in the test with IGROV-1, with KM12 and with MDA-MB-231 was > 100 µM (inactive) throughout. Moreover, the GI50 with MDA-MB-435, in the test with Malme-3M, with NCI-H23, with OVCAR-8, in the test on RPMI-8226 and with RXF 393 was > 100 µM (inactive) each time. The GI50 with SF-268 was > 100 µM (inactive); in the test with SF-295, > 100 µM (inactive); in the test with SF-539 it was > 100 µM (inactive); with SN12C, > 100 µM (inactive); in the test with SNB-19, > 100 µM (inactive); in the test on SNB-75 it was 58.9 µM (inactive). Moreover, the GI50 in the test on SW-620 and in the test on TK-10 was > 100 µM (inactive) in each case.

Consider `Cc1nc2ccc(S(=O)(=O)Nc3ccccn3)cc2c(=O)n1NS(=O)(=O)c1ccccn1`, for which the GI50 in the test on 786-0, in the test on DU-145, in the test on Hs-578T, in the test on IGROV-1, in the test with KM12 and in the test with MDA-MB-231 was > 100 µM (inactive) in each case. The GI50 in the test with MDA-MB-435, in the test on Malme-3M, in the test on NCI-H23, with OVCAR-8, in the test with RPMI-8226 and with RXF 393 was > 100 µM (inactive) throughout. In addition, the GI50 with SF-268, in the test with SF-295, in the test on SF-539, in the test on SN12C, in the test on SNB-19 and in the test on SNB-75 was > 100 µM (inactive) each time. Further, the GI50 in the test on SW-620 and with TK-10 was > 100 µM (inactive) in each case.

On to `CC(=O)N(C(C)=O)n1c(Cc2ccc(Cl)cc2)n[nH]c1=O`, for which the GI50 in the test with 786-0, with DU-145, in the test on Hs-578T, in the test with IGROV-1, with KM12 and in the test with MDA-MB-231 was > 100 µM (inactive) in each case. For the same compound, the GI50 was > 100 µM (inactive) with MDA-MB-435; > 52.7 µM (inactive) in the test on Malme-3M; > 100 µM (inactive) in the test with NCI-H23; > 100 µM (inactive) with OVCAR-8; > 100 µM (inactive) in the test on RPMI-8226; 28.5 µM (inactive) in the test with RXF 393. Besides, the GI50 in the test with SF-268 was > 100 µM (inactive); with SF-295 it was > 64.4 µM (inactive); in the test with SF-539, > 100 µM (inactive); in the test with SN12C it was > 100 µM (inactive); in the test on SNB-19, > 100 µM (inactive); in the test on SNB-75, > 81.8 µM (inactive). The GI50 in the test with SW-620 and with TK-10 was > 100 µM (inactive) each time.

As to `CSc1nc(SC)c2c(CO)c(Br)n(Cc3ccccc3)c2n1`, the GI50 in the test with 786-0 is 18.7 µM (inactive); in the test on DU-145, 25.9 µM (inactive); in the test with Hs-578T, 19.1 µM (inactive); in the test on IGROV-1 it was 16 µM (inactive); with KM12 it was 70 µM (inactive); with MDA-MB-231, 17.7 µM (inactive). Further, the GI50 is > 100 µM (inactive) with MDA-MB-435; 52.4 µM (inactive) in the test with Malme-3M; 30.7 µM (inactive) in the test on NCI-H23; 18 µM (inactive) in the test on OVCAR-8; 92.9 µM (inactive) in the test on RPMI-8226; 28 µM (inactive) in the test on RXF 393. For the same compound, the GI50 in the test with SF-268 is 16.3 µM (inactive); in the test with SF-295, 20.7 µM (inactive); in the test on SF-539, 12.2 µM (inactive); in the test on SN12C, 35.4 µM (inactive); in the test on SNB-19, 29 µM (inactive); in the test on SNB-75 it was 13.6 µM (inactive). The GI50 with SW-620 is > 100 µM (inactive); with TK-10 it was 21.8 µM (inactive).
